For one assay, the target named is ShHTL7S95C. Description: Intrinsic Triton fluorescence binding assay. Set-up: species or system Striga hermonthica. Conditions: inactive ShHTL7S95C; buffer with 0.005% Tween‐20; converged after 2.5 h of incubation; read-out: dissociation constant (Kd), intrinsic Triton fluorescence.
For assay [1], the target named is T1, ShHTL7 (Striga hermonthica, UniProt A0A0M3PNA2).
T1 sequence (A0A0M3PNA2 1-271): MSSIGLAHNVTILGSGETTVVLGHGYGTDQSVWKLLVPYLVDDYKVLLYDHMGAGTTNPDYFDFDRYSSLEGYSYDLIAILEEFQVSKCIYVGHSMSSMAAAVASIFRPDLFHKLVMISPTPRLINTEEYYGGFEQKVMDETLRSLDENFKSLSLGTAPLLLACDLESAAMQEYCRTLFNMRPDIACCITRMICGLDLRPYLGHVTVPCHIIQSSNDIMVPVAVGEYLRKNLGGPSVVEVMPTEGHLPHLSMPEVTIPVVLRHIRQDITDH
Description: Drug affinity response target stability (DARTS) assay. It counts as binding. Conditions: 100 μM compound; proteinase K 10 μg/ml. The protocol: ShHTL7 and mutants were diluted to a concentration of 30 μM in 50 mM Tris–HCl pH 7.5, 150 mM NaCl, 0.005% Tween‐20, incubated with GR24 at final concentration of 100 μM for 5 min, and separately with 100 μM Triton X‐100 for 2 h. One sample was kept aside for use as an undigested control. Proteinase K (Hampton Research) was then added to ShHTL7 protein to a final protease concentration of 10 μg/ml. Reactions were incubated at room temperature for 5 min and then SDS–PAGE loading buffer was added to stop the reaction, and the samples were immediately boiled for 3 min. Equal amounts of each sample, corresponding to 10 μg of protein, were run on a 4–20% gradient polyacrylamide gel (Bio‐Rad) and analyzed by Coomassie Blue staining 32.

Assay [2] concerns the target T2, OsD14 (Oryza sativa subsp. japonica, UniProt Q10QA5).
T2 construct: made in house; host or cells: E. coli BL21 (DE3)
T2 sequence (Q10QA5 1-318): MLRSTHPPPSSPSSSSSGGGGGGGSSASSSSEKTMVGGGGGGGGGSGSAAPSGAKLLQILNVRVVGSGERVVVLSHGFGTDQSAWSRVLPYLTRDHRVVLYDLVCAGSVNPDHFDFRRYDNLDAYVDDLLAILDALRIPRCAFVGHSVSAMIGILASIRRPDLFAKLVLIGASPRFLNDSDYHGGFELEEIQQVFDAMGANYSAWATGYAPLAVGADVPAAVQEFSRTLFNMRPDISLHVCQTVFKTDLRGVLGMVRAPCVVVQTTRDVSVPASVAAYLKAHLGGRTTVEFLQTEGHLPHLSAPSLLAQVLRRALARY
Briefly: Intrinsic Triton fluorescence binding assay. The settings on record: up to 5 μM of OsD14. The method, then:
(§1) Triton X‐100 has an excitation and emission wavelength of 275 and 302 nm, respectively. ShHTL7, ShHTL7‐L143Y, AtD14, and OsD14 were incubated in 50 mM Tris–HCl pH 7.5, 150 mM NaCl, with or without 0.005% Tween‐20, at concentrations ranging from 10 μM to 1 nM (obtained using serial dilutions) with 154 nM of Triton X‐100 for 1–2 h, and fluorescence values were then measured by SpectraMax i3 (Molecular Devices) at excitation and detection wavelengths of 275 and 302 nm, respectively. […] Data were normalized to the background fluorescence from the protein to obtain the change in Triton X‐100 fluorescence intensity. To determine the K d, the changes in Triton X‐100 fluorescence intensity were plotted against the concentration of the protein using the single binding site model implemented in GraphPad (Prism 6).

In assay [3] the target is T1, ShHTL7. Description: Intrinsic Triton fluorescence binding assay. The protocol:
as §1

In another assay the target is T3, AtD14 (Arabidopsis thaliana, UniProt Q9SQR3).
T3 construct: made in house; host or cells: E. coli BL21 (DE3)
T3 sequence (Q9SQR3 1-267): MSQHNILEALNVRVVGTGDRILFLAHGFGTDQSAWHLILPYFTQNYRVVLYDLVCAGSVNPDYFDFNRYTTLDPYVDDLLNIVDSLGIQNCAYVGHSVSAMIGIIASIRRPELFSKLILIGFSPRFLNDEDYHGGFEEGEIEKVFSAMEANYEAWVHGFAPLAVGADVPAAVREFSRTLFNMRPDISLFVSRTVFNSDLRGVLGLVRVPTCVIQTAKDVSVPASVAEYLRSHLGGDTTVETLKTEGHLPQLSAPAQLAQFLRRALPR
Description: Intrinsic Triton fluorescence binding assay. Conditions: up to 5 μM of AtD14. The method, then: as §1

Assay [4] concerns the target T2, OsD14. Description: YLG hydrolysis assay. It counts as biochemical. The protocol:
In vitro YLG hydrolysis assays were performed using 3 μM of ShHTL7, ShHTL7‐L143Y, AtD14, and OsD14 in a reaction buffer (1× PBS) with 0.1% dimethyl sulfoxide (DMSO) in a 100 μl volume on a 96‐well black plate (Greiner). The fluorescent intensity was measured by SpectraMax i3 (Molecular Devices) using an excitation wavelength of 480 nm and a detection wavelength of 520 nm. ShHTL7, ShHTL7‐L143Y, AtD14, and OsD14 were mixed with Triton X‐100, using serial dilutions to cover the Triton X‐100 concentration range from 5 μM until 4.87 nM. Protein‐Triton mixes were pre‐incubated for 30 min. 1 μM YLG (Tokyo Chemical Industry Co. Ltd.) was then added, and the assay was incubated for 60 min. The change in fluorescence observed over the course of 1 h incubation of YLG in buffer without protein was subtracted from the data collected in the presence of protein. The resulting relative fluorescence values were analyzed. The inhibitory curves and IC50 values were plotted using GraphPad (Prism 6) four‐parameter logistic curve. The rate of YLG hydrolysis by ShHTL7 was recorded following the above method at 10‐min interval for 2 h.

Assay [5] addresses T1, ShHTL7. Description: Differential static light scattering (DSLS), aggregation temperature. It counts as binding. The protocol: The specific aggregation temperature, T agg, at which ShHTL7, ShHTL7L143Y, AtD14, and OsD14 aggregated in the presence or absence of Triton X‐100, GR24, and PAA was measured using DSLS on the Stargazer system (Harbinger Biotechnology and Engineering Corporation, Markham, Canada). Protein samples at a concentration of 10 μM were overlaid with mineral oil in a clear bottom 384‐well black plate (Corning) and heated from 20 to 95°C at 1°C/min; light scattering was detected by a CCD camera every 0.5°C in the presence or absence of varying concentrations of Triton X‐100, GR24, and PAA yielding the difference in aggregation temperature at a particular concentration from apoproteins (ΔT agg). Data were normalized, and ΔT agg plotted against the Triton X‐100, GR24, and PAA concentration. Resulting data were plotted to determine the change in T agg of all proteins when bound to Triton X‐100, GR24, and PAA using GraphPad (Prism 6).

We go through 1 substance from article PMC6123649, “Structural basis for specific inhibition of the highly sensitive ShHTL7 receptor” (EMBO Reports, 2018).

Entries after “also recorded” stand apart in the source; their conditions may differ. Like-named read-outs stand apart in the source and are kept apart here.

In general, Kd refers to a measure of binding affinity in units of concentration. Regarding Triton X-100, the equilibrium dissociation constant (Kd) is 195 ± 21 nM at ShHTL7S95C; 233 ± 30 nM at ShHTL7 [3] (in the absence of Tween‐20, read-out: final Kd, intrinsic Triton fluorescence); 284 ± 22 nM on ShHTL7 [3] (wild-type ShHTL7, buffer with 0.005% Tween‐20, converged after 2.5 h of incubation, read-out: dissociation constant (Kd), intrinsic Triton fluorescence). The “protection of ShHTL7 from digestion by proteinase K” value on ShHTL7 [1] was “efficiently protected”. Besides, the “change of Triton fluorescence in presence of protein” value at OsD14 [2] and at AtD14 was “did not change” throughout. The “Kd for the Triton-ShHTL7 association” value at ShHTL7 [3] (across methods and buffers (authors' reply in peer review file)) is given as ~ 250 nM. Also, the “decrease of YLG hydrolysis rate” value on OsD14 [4] (5 μM Triton) worked out at 10%. For the same substance, the “effect on YLG hydrolysis activity” value at OsD14 [4] (Triton up to 0.5 μM) is “did not impact”. Further, at ShHTL7 [5] (10 μM protein, varying compound concentrations), the “effect on ShHTL7 aggregation temperature (T agg)” value was “increases; also recorded: stabilized”. The “effect of Triton pre‐incubation on GR24-induced T agg changes in ShHTL7” value on ShHTL7 [5] (pre‐incubation with Triton, then GR24) was “efficiently blocked”.
